Assay results taken from patent US9790229B2, “Bruton's tyrosine kinase inhibitors” (priority 2009, dated 2017).
pIC50: −log10 of the molar value. Where two headings read alike, the source gives them in different places.

Biological target: BTK (Homo sapiens (Human), UniProt Q06187)
Experiment: In vitro BTK kinase assay: BTK-POLYGAT-LS ASSAY
[1] = read-out: IC50 (10 uM ATP), 10 uM ATP, in vitro Btk kinase assay, Example 41

Sequence of BTK (Q06187 whole entry): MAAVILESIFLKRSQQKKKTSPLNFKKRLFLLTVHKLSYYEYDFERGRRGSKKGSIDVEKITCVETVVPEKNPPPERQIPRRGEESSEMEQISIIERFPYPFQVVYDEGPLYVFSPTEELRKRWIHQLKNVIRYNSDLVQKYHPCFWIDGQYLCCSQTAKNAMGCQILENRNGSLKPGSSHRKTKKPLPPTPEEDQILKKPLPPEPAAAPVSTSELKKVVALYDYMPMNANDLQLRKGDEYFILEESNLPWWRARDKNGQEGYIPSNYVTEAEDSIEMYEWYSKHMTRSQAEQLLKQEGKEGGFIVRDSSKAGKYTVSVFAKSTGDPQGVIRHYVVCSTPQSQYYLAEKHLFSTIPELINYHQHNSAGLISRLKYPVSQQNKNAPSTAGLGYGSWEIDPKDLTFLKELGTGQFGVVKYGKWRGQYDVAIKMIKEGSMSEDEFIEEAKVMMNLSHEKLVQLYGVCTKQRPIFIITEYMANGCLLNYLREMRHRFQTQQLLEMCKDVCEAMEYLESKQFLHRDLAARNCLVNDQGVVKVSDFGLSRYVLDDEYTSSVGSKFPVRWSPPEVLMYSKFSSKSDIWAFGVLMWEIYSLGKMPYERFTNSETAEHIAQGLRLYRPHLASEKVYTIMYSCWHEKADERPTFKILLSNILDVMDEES

| Structure (SMILES) | pIC50 [1] | pIC50 |
| --- | --- | --- |
| Nc1ncnc(N2CCC[C@@H](N3CCCC(Nc4cc(F)cc(Cl)c4)C3=O)C2)c1F (stereo in doubt) [compound 313, (3R,3′R)-1′-(6-Amino-5-fluoropyrimidin-4-yl)-3-(3-chloro-5-fluorophenylamino)-1,3′-bipiperidin-2-one] | > 7.00 |  |
| Nc1ncnc(N2CCC[C@@H](N3CCCC(Nc4cc(F)cc(Cl)c4)C3=O)C2)c1F (stereo in doubt) [compound 314, (3S,3′R)-1′-(6-Amino-5-fluoropyrimidin-4-yl)-3-(3-chloro-5-fluorophenylamino)-1,3′-bipiperidin-2-one] | > 7.00 |  |
| Nc1ncnc(N2CCC[C@@H](N3CCCC(Nc4ccccc4S(=O)(=O)c4ccccc4)C3=O)C2)c1F (stereo in doubt) [compound 319, 1′-(6-Amino-5-fluoropyrimidin-4-yl)-3-(2-(phenylsulfonyl)phenylamino)-1,3′-bipiperidin-2-one] | > 7.00 |  |
| O=C(Nc1cccc(C2CCCN(c3ncnc4[nH]ccc34)C2)c1)c1ccccc1 (centres unmarked) [Cmpd 2, N-(3-(1-(7H-pyrrolo[2,3-d]pyrimidin-4-yl)piperidin-3-yl)phenyl)benzamide] |  | 5.00 to 6.00 |
| O=C(Nc1cccc(C2CCCN(c3ncnc4[nH]ccc34)C2)c1)c1ccc(Cl)cc1 (centres unmarked) [Cmpd 3, N-(3-(1-(7H-pyrrolo[2,3-d]pyrimidin-4-yl)piperidin-3-yl)phenyl)-4-chlorobenzamide] |  | 5.00 to 6.00 |
| O=C(Nc1cccc(C2CCCN(c3ncnc4[nH]ccc34)C2)c1)c1cccc(Cl)c1 (centres unmarked) [Cmpd 4, N-(3-(1-(7H-pyrrolo[2,3-d]pyrimidin-4-yl)piperidin-3-yl)phenyl)-3-chlorobenzamide] |  | 5.00 to 6.00 |
| O=C(Nc1cccc(C2CCCN(c3ncnc4[nH]ccc34)C2)c1)c1ccccc1Cl (centres unmarked) [Cmpd 5, N-(3-(1-(7H-pyrrolo[2,3-d]pyrimidin-4-yl)piperidin-3-yl)phenyl)-2-chlorobenzamide] | < 5.00 |  |
| COc1ccccc1C(=O)Nc1cccc(C2CCCN(c3ncnc4[nH]ccc34)C2)c1 (centres unmarked) [Cmpd 6, N-(3-(1-(7H-pyrrolo[2,3-d]pyrimidin-4-yl)piperidin-3-yl)phenyl)-2-methoxybenzamide] | < 5.00 |  |
| COc1cccc(C(=O)Nc2cccc(C3CCCN(c4ncnc5[nH]ccc45)C3)c2)c1 (centres unmarked) [Cmpd 7, N-(3-(1-(7H-pyrrolo[2,3-d]pyrimidin-4-yl)piperidin-3-yl)phenyl)-3-methoxybenzamide] | < 5.00 |  |
| COc1ccc(C(=O)Nc2cccc(C3CCCN(c4ncnc5[nH]ccc45)C3)c2)cc1 (centres unmarked) [Cmpd 8, N-(3-(1-(7H-pyrrolo[2,3-d]pyrimidin-4-yl)piperidin-3-yl)phenyl)-4-methoxybenzamide] | < 5.00 |  |
| O=C(Cc1ccccc1)Nc1cccc(C2CCCN(c3ncnc4[nH]ccc34)C2)c1 (centres unmarked) [Cmpd 9, N-(3-(1-(7H-pyrrolo[2,3-d]pyrimidin-4-yl)piperidin-3-yl)phenyl)-2-phenylacetamide] | < 5.00 |  |
| O=C(Nc1cccc(C2CCCN(c3ncnc4[nH]ccc34)C2)c1)c1c(Cl)cccc1Cl (centres unmarked) [Cmpd 10, N-(3-(1-(7H-pyrrolo[2,3-d]pyrimidin-4-yl)piperidin-3-yl)phenyl)-2,6-dichlorobenzamide] | < 5.00 |  |
| O=C(CNc1ccccc1)Nc1cccc(C2CCCN(c3ncnc4[nH]ccc34)C2)c1 (centres unmarked) [Cmpd 17, N-(3-(1-(7H-pyrrolo[2,3-d]pyrimidin-4-yl)piperidin-3-yl)phenyl)-2-(phenylamino) acetamide] | < 5.00 |  |
| O=C(Nc1cccc(C2CCCN(c3ncnc4[nH]ccc34)C2)c1)[C@@H](O)c1ccccc1 (stereo partly drawn) [Cmpd 18, (2S)—N-(3-(1-(7H-pyrrolo[2,3-d]pyrimidin-4-yl)piperidin-3-yl)phenyl)-2-hydroxy-2-phenylacetamide] |  | 5.00 to 6.00 |
| O=C(Nc1cccc(C2CCCN(c3ncnc4[nH]ccc34)C2)c1)[C@H](O)c1ccccc1 (stereo partly drawn) [Cmpd 19, (2R)—N-(3-(1-(7H-pyrrolo[2,3-d]pyrimidin-4-yl)piperidin-3-yl)phenyl)-2-hydroxy-2-phenylacetamide] |  | 5.00 to 6.00 |
| N[C@H](C(=O)Nc1cccc(C2CCCN(c3ncnc4[nH]ccc34)C2)c1)c1ccccc1 (stereo partly drawn) [Cmpd 20, (2S)—N-(3-(1-(7H-pyrrolo[2,3-d]pyrimidin-4-yl)piperidin-3-yl)phenyl)-2-amino-2-phenylacetamide] | < 5.00 |  |
| N[C@@H](C(=O)Nc1cccc(C2CCCN(c3ncnc4[nH]ccc34)C2)c1)c1ccccc1 (stereo partly drawn) [Cmpd 21, (2R)—N-(3-(1-(7H-pyrrolo[2,3-d]pyrimidin-4-yl)piperidin-3-yl)phenyl)-2-amino-2-phenylacetamide] | < 5.00 |  |
| O=C(COc1ccccc1)Nc1cccc(C2CCCN(c3ncnc4[nH]ccc34)C2)c1 (centres unmarked) [Cmpd 22, N-(3-(1-(7H-pyrrolo[2,3-d]pyrimidin-4-yl)piperidin-3-yl)phenyl)-2-phenoxyacetamide] |  | 5.00 to 6.00 |
| O=C(CCc1ccccc1)Nc1cccc(C2CCCN(c3ncnc4[nH]ccc34)C2)c1 (centres unmarked) [Cmpd 23, N-(3-(1-(7H-pyrrolo[2,3-d]pyrimidin-4-yl)piperidin-3-yl)phenyl)-3-phenylpropanamide] |  | 5.00 to 6.00 |

| Structure (SMILES) | pIC50 [1] | pIC50 |
| --- | --- | --- |
| O=C(Nc1cccc(Cl)c1)Nc1cccc(C2CCCN(c3ncnc4[nH]ccc34)C2)c1 (centres unmarked) [Cmpd 26, 1-(3-(1-(7H-pyrrolo[2,3-d]pyrimidin-4-yl)piperidin-3-yl)phenyl)-3-(3-chlorophenyl)urea] |  | 5.00 to 6.00 |
| O=C(Nc1ccc(Cl)cc1)Nc1cccc(C2CCCN(c3ncnc4[nH]ccc34)C2)c1 (centres unmarked) [Cmpd 27, 1-(3-(1-(7H-pyrrolo[2,3-d]pyrimidin-4-yl)piperidin-3-yl)phenyl)-3-(4-chlorophenyl)urea] |  | 5.00 to 6.00 |
| O=C(Nc1ccccc1)Nc1cccc(C2CCN(c3ncnc4[nH]ccc34)C2)c1 (centres unmarked) [Cmpd 28, 1-(3-(1-(7H-pyrrolo[2,3-d]pyrimidin-4-yl)pyrrolidin-3-yl)phenyl)-3-phenylurea] |  | 5.00 to 6.00 |
| O=C(Nc1cccc(C2CCCN(c3ncnc4[nH]ccc34)C2)c1)Nc1ccccn1 (centres unmarked) [Cmpd 29, 1-(3-(1-(7H-pyrrolo[2,3-d]pyrimidin-4-yl)piperidin-3-yl)phenyl)-3-(pyridin-2-yl)urea] |  | 5.00 to 6.00 |
| O=C(Nc1cccnc1)Nc1cccc(C2CCCN(c3ncnc4[nH]ccc34)C2)c1 (centres unmarked) [Cmpd 30, 1-(3-(1-(7H-pyrrolo[2,3-d]pyrimidin-4-yl)piperidin-3-yl)phenyl)-3-(pyridin-3-yl)urea] |  | 5.00 to 6.00 |
| O=C(Nc1ccncc1)Nc1cccc(C2CCCN(c3ncnc4[nH]ccc34)C2)c1 (centres unmarked) [Cmpd 31, 1-(3-(1-(7H-pyrrolo[2,3-d]pyrimidin-4-yl)piperidin-3-yl)phenyl)-3-(pyridin-4-yl)urea] | < 5.00 |  |
| O=C(Nc1ccsc1)Nc1cccc(C2CCCN(c3ncnc4[nH]ccc34)C2)c1 (centres unmarked) [Cmpd 32, 1-(3-(1-(7H-pyrrolo[2,3-d]pyrimidin-4-yl)piperidin-3-yl)phenyl)-3-(thiophen-3-yl)urea] |  | 5.00 to 6.00 |
| CCc1cccc(CC)c1NC(=O)Nc1cccc(C2CCCN(c3ncnc4[nH]ccc34)C2)c1 (centres unmarked) [Cmpd 33, 1-(3-(1-(7H-pyrrolo[2,3-d]pyrimidin-4-yl)piperidin-3-yl)phenyl)-3-(2,6-diethylphenyl)urea] |  | 6.00 to 7.00 |
| CN(C)c1ccccc1NC(=O)Nc1cccc(C2CCCN(c3ncnc4[nH]ccc34)C2)c1 (centres unmarked) [Cmpd 34, 1-(3-(1-(7H-pyrrolo[2,3-d]pyrimidin-4-yl)piperidin-3-yl)phenyl)-3-(2-(dimethylamino)phenyl)urea] |  | 5.00 to 6.00 |
| O=C(Nc1cccc(C2CCCN(c3ncnc4[nH]ccc34)C2)c1)Nc1ccccc1-n1ccnc1 (centres unmarked) [Cmpd 35, 1-(2-(1H-imidazol-1-yl)phenyl)-3-(3-(1-(7H-pyrrolo[2,3-d]pyrimidin-4-yl)piperidin-3-yl)phenyl)urea] |  | 5.00 to 6.00 |
| C[C@@H](NC(=O)Nc1cccc(C2CCCN(c3ncnc4[nH]ccc34)C2)c1)c1ccccc1 (stereo partly drawn) [Cmpd 43, 1-(3-(1-(7H-pyrrolo[2,3-d]pyrimidin-4-yl)piperidin-3-yl)phenyl)-3-((R)-1-phenylethyl)urea] |  | 5.00 to 6.00 |
| C[C@@H](NC(=O)Nc1cccc(C2CCCN(c3ncnc4[nH]ccc34)C2)c1)C1CCCCC1 (stereo partly drawn) [Cmpd 44, 1-(3-(1-(7H-pyrrolo[2,3-d]pyrimidin-4-yl)piperidin-3-yl)phenyl)-3-((R)-1-cyclohexylethyl)urea] |  | 5.00 to 6.00 |
| O=C(Nc1cccc(C2CCCN(c3ncnc4[nH]ccc34)C2)c1)Nc1ccccc1C1CCCC1 (centres unmarked) [Cmpd 48, 1-(3-(1-(7H-pyrrolo[2,3-d]pyrimidin-4-yl)piperidin-3-yl)phenyl)-3-(2-cyclopentylphenyl)urea] |  | 6.00 to 7.00 |
| O=C(Nc1cccc(C2CCCN(c3ncnc4[nH]ccc34)C2)c1)Nc1c(F)cc(F)cc1N1CCCC1 (centres unmarked) [Cmpd 49, 1-(3-(1-(7H-pyrrolo[2,3-d]pyrimidin-4-yl)piperidin-3-yl)phenyl)-3-(2,4-difluoro-6-(pyrrolidin-1-yl)phenyl)urea] |  | > 7.00 |
| O=C(Nc1cccc(C2CCCN(c3ncnc4[nH]ccc34)C2)c1)Nc1c(Cl)cccc1N1CCCC1 (centres unmarked) [Cmpd 50, 1-(3-(1-(7H-pyrrolo[2,3-d]pyrimidin-4-yl)piperidin-3-yl)phenyl)-3-(2-chloro-6-(pyrrolidin-1-yl)phenyl)urea] | > 7.00 |  |
| O=C(Nc1cccc(C2CCCN(c3ncnc4[nH]ccc34)C2)c1)Nc1c(F)cccc1N1CCCC1=O (centres unmarked) [Cmpd 51, 1-(3-(1-(7H-pyrrolo[2,3-d]pyrimidin-4-yl)piperidin-3-yl)phenyl)-3-(2-fluoro-6-(2-oxopyrrolidin-1-yl)phenyl)urea] |  | 5.00 to 6.00 |
| C[C@@H]1CCCN1c1cccc(F)c1NC(=O)Nc1cccc(C2CCCN(c3ncnc4[nH]ccc34)C2)c1 (stereo partly drawn) [Cmpd 52, 1-(3-(1-(7H-pyrrolo[2,3-d]pyrimidin-4-yl)piperidin-3-yl)phenyl)-3-(2-fluoro-6-((R)-2-methylpyrrolidin-1-yl)phenyl)urea] | > 7.00 |  |
| O=C(Nc1cccc(C2CCCN(c3ncnc4[nH]ccc34)C2)c1)N1CCCCC1 (centres unmarked) [Cmpd 53, N-(3-(1-(7H-pyrrolo[2,3-d]pyrimidin-4-yl)piperidin-3-yl)phenyl)piperidine-1-carboxamide] |  | 5.00 to 6.00 |
| Cc1cc(NC(=O)Nc2cccc(C3CCCN(c4ncnc5[nH]ccc45)C3)c2)no1 (centres unmarked) [Cmpd 57, 1-(3-(1-(7H-pyrrolo[2,3-d]pyrimidin-4-yl)piperidin-3-yl)phenyl)-3-(5-methylisoxazol-3-yl)urea] |  | 5.00 to 6.00 |
